Reference: EP4616854A1, “TREATMENT OF MUSCLE SARCOPENIA” (Molius Saglik Teknolojileri Anonim Sirketi, priority 2024, dated 2025)
“Also recorded” adds a separate entry of the source. Where a SMILES comes first, the peptide text is derived from it. The star is where a group is joined. Cbz = O=C(OCc1ccccc1)*

Legend:
[1] = Cell viability assay (MTT); conditions: mouse, c2c12 cells
Experimental: The effects of the drugs on the C2C12 cell viability were tested by MTT (Thiazolyl Blue Tetrazolium Bromide) assay. 1×10^4 cells were seeded per well in a 96-well plate in 100 µL growth media. After one day of cell seeding, the cells were treated with different concentrations of the drugs dissolved in 0.1 % DMSO and 100 µL of the media for one day. After the treatment period, 5 mg/ml MTT (M2128, Sigma-Aldrich) solution in PBS (10 µL) was added to each well. After one hour, the MTT solution and all media were removed from the wells. 100 µl of DMSO was added and mixed to dissolve the formazan crystals. Cell viability was analysed by measuring the absorbance of the dissolved formazan at a wavelength of 570 nm with a microplate reader (Hidex Sense Beta Plus).

ubiquitinated proteins = conditions: mice, Sakai et al. [39]; cited from earlier work
[2] = system: C2-ceramide treated C2C12 cell line; assay: In vitro sarcopenia model (Example 2): Western blot of target genes and myogenic markers; assay type: cell-based, mouse
Excerpt: C2-ceramide ([…], Sigma Aldrich) was used for inducing sarcopenia in the C2C12 cell line. […] Then, the medium was changed twice, at two-day intervals, with a differentiation medium (DMEM with 2% FBS and 1% P/S) to differentiate myoblasts into myotubes. Because C2-ceramide may affect mitochondrial activity in muscle cells, another cell model was created without introducing ceramide. After completion of myotube differentiation, cells were harvested for western blot analysis. […] The cell lysates were centrifuged at 12.000 rpm for 10 min and supernatants were collected. Protein Assay Dye Reagent (5000006, Bio-Rad) was used for the determination of protein concentration. The absorbance of the proteins was measured spectrophotometrically at 595 nm by a microplate reader (Hidex Sense Beta Plus). […] The membrane was blocked with 5 % skim milk for 30 min at 4 °C with gentle rocking. After blocking, the membrane was treated with primary antibodies: anti-AGL (ab133720, Abcam, UK) anti-PDHX (HPA038484, Human Protein Atlas, Sweden), anti-Myogenin (ab124800, Abcam), anti-Myosin/MyH3 (ab124205, Abcam), anti-Beta actin (ab8227, Abam) as a loading control overnight at 4 °C on a rocking platform. After the treatment of primary antibodies, the membrane was washed three times with TBS-T buffer ([…]-7500-100, Medicago). Then, Goat anti-Rabbit IgG-HRP (ab205718, Abcam) was treated as the secondary antibody for 30 min at 4 °C with gentle rocking.

[3] = system: C2-ceramide treated C2C12 cell line; assay: In vitro sarcopenia model (Example 1): myotube phenotype and MyH3 immunofluorescence; assay type: cell-based, mouse
Experimental: (§1) The C2C12 cells (C2C12 mouse C3H muscle myoblast purchased from Sigma) were maintained in modified Eagle's medium (DMEM) with 10 % fetal bovine serum (FBS) and 1 % penicillin/streptomycin (P/S) solution in a humidified incubator with 5 % CO2 at 37 °C. 40 µM C2-ceramide was used for developing an in vitro model of sarcopenia in the C2C12 cell line, i.e., in vitro sarcopenia model. One day after 300×10^3 cells were seeded per well in a 6-well plate, N-acetyl-D-sphingosine (C2-ceramide) and the drug candidates (dissolved in DMSO) were administered in the maintenance condition (DMEM with 10 % FBS and 1 % P/S) for two days. Then, the medium was changed twice, at two-day intervals, with a differentiation medium (DMEM with 2% FBS and 1% P/S) with drug candidates to differentiate myoblasts into myotubes. Furthermore, siRNAs for Anxa2 and Clmp and overexpression plasmids for Cyc1 and Sdhb were transfected into the cells to examine the effect of the target proteins on the in vitro sarcopenia model. Cell viability was measured spectrophotometrically by Cell Counting kit-8. The expression level of target proteins (ANXA2, CLMP, Cyc1, and SDHB), myogenic markers (MyoG and MyH3) and α-Tubulin (internal control) were detected using Western blots. All experiments were performed with 3 replicates.
The cells were, once again, washed 3 times in PBS and then permeabilized in 0.1 % TritonX-100 for 15 min at room temperature. The cells were then incubated for 1 h in 2 % bovine serum albumin (BSA) solution followed by overnight incubation in anti-Myosin/MyH3 diluted in 0.1 % BSA at 4 °C. Primary antibody solution was washed away with PBS, then incubated in fluorescent dye-labelled secondary antibody diluted in 0.1 % BSA for 45 min at room temperature protected from light. Finally, the samples were washed 3 times with 1xPBS-T and mounted with DAPI mount putted cover glass on the cells.
The cell brightness was measured by ImageJ software (NIH). For each experiment condition, three different areas were photographed with same area size (5038848 by ImageJ), the mean brightness of each image was obtained for statistical analysis. The t test was used to check the statistical differences between any two experiment conditions.

[4] = system: C2-ceramide treated C2C12 cell line; assay: In vitro sarcopenia model (Example 1): Western blot of target proteins and myogenic markers; assay type: cell-based, mouse; conditions: concentration not given
Experimental: as §1
The cells were washed with PBS and lysed with CelLytic M (C2978, Sigma-Aldrich) lysis buffer containing protease inhibitors. The cell lysates were centrifuged at 12 000 rpm for 5 min and supernatants were collected. A protein assay solution (Bio-Rad) was used for the determination of protein concentration. The absorbance of the proteins was measured spectrophotometrically at 595 nm by microplate reader (Hidex Sense Beta Plus). Protein electrophoresis was performed using Mini-PROTEAN® TGXTM Precast Gels (Bio-Rad) and the separated proteins were transferred to a Trans-Blot Turbo Mini 0.2 um PVDF Transfer Packs membrane (Bio-Rad) by using Trans-Blot® TurboTM Transfer System (Bio-Rad). The membrane was blocked with 5 % skim milk for 30 min at 4 °C with gentle rocking. It was immunoblotted with primary antibodies against MyH3, MyoG, ANXA2, CLMP, Cyc1, and SDHB, as well as α-Tubulin, as an internal control, overnight at 4 °C with gentle rocking. Goat anti-Rabbit HRP or goat anti-mouse IgG-HRP was used as secondary antibody. Reaction with secondary antibody proceeded for 30 min at 4 °C with gentle rocking.

C2C12 myoblasts = assay: Differentiation of C2C12 myoblasts to myotubes under drug treatment, without ceramide; assay type: cell-based, mouse; conditions: selected non-toxic concentration of drug candidate, Fig. 11
Experimental: The C2C12 cells (C2C12 mouse C3H muscle myoblast purchased from Sigma) were maintained in modified Eagle's medium (DMEM) with 10 % fetal bovine serum (FBS) and 1 % penicillin/streptomycin (P/S) solution in a humidified incubator with 5 % CO2 at 37 °C. […] […] Then, the medium was changed twice, at two-day intervals, with a differentiation medium (DMEM with 2% FBS and 1% P/S) with drug candidates to differentiate myoblasts into myotubes. […] Cell viability was measured spectrophotometrically by Cell Counting kit-8. The expression level of target proteins (ANXA2, CLMP, Cyc1, and SDHB), myogenic markers (MyoG and MyH3) and α-Tubulin (internal control) were detected using Western blots. All experiments were performed with 3 replicates.

[5] = drug plus ceramide (sarcopenic cells)

CC(C)C[C@@H](C=O)NC(=O)[C@H](CC(C)C)NC(=O)[C@H](CC(C)C)NC(=O)OCc1ccccc1 [MG-132] (Cbz-Leu-Leu-Leu-aldehyde)
MNTC at 24 h [1]: 25 nM
expression levels of ubiquitinated proteins in atrophic muscle cells (ubiquitinated proteins): downregulation
expression levels of MyH3 ([2]; sarcopenic cells): significantly increase
expression levels of MyoG ([2]; sarcopenic cells): significantly increase
expression of myogenic markers ([2]; sarcopenic cells, compared to the in vitro sarcopenia model): increased
expression of AGL ([2]; selected non-toxic optimal dose, in vitro sarcopenia model): enhanced; also recorded: significantly increase

CC1=C(CO)C(=O)OC(C(C)C2CCC3C4CC5OC56C(O)C=CC(=O)C6(C)C4CCC23C)C1 (centres unmarked) [Withaferin-A, withaferin-A]
effect on myotubes (phenotypic change) ([3]; 40 µM ceramide plus drug candidate at selected concentration): improved the myotubes similarly to the control sample
MyH3 intensity compared to the control group ([3]; mean brightness of MyH3 staining, Fig. 5B): no statistical difference
MNTC at 24 h [1]: 50 nM
expression level of CYC1 [4, 5]: activating effect
expression level of MyH3 [4, 5]: increase; also recorded: expressed as much as control samples
expression level of MyoG [4, 5]: increase
expression level of ANXA2 ([4]; drug plus ceramide): inhibitory effect; also recorded: decreased
differentiation of myoblasts to myotubes (C2C12 myoblasts): highly differentiated

CC(C)(Oc1ccc(Cl)cc1)C(=O)O [clofibric-acid, clofibric acid]
MNTC at 24 h [1]: 5000 nM

CC(=O)c1c(C)c2cnc(Nc3ccc(N4CCNCC4)cn3)nc2n(C2CCCC2)c1=O [palbociclib]
MNTC at 24 h [1]: 5000 nM

Cc1c(C)c2c(c(C)c1O)CCC(C)(COc1ccc(CC3SC(=O)NC3=O)cc1)O2 (centres unmarked) [troglitazone]
MNTC at 24 h [1]: 500 nM
